Assay results from ChEMBL document CHEMBL1201862, “PubChem BioAssay data set” (2004).
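Grown in 96-well plates, cells were treated for 48 hours with each compound at five concentrations. Insufficient inhibition: endpoint recorded as highest concentration tested. Abbreviation: GI50, concentration required for 50% inhibition of growth.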 The source made the active and inactive calls. Rule as the data show it: active = GI50 up to about 1.1 µM and inactive = higher.

Assays:
Experiment in all cases: NCI tumour cell line growth inhibition, 48 h
[1] = tested on: HOP-62
[2] = tested on: Malme-3M
[3] = tested on: EKVX
[4] = tested on: SK-MEL-2
[5] = tested on: U-251
[6] = tested on: MCF7
[7] = tested on: UACC-257
[8] = tested on: HCT-15
[9] = tested on: K562
[10] = tested on: HT-29
[11] = tested on: SK-MEL-28
[12] = tested on: A549
[13] = tested on: HOP-92
[14] = tested on: NCI-H226
[15] = tested on: SW-620
[16] = tested on: SF-268
[17] = tested on: Hs-578T
[18] = tested on: SK-MEL-5
[19] = tested on: UO-31
[20] = tested on: OVCAR-3

Compound | GI50 [1] | GI50 [2] | GI50 [3] | GI50 [4] | GI50 [5] | GI50 [6] | GI50 [7] | GI50 [8] | GI50 [9] | GI50 [10] | GI50 [11] | GI50 [12] | GI50 [13] | GI50 [14] | GI50 [15] | GI50 [16] | GI50 [17] | GI50 [18] | GI50 [19] | GI50 [20]
Cc1nc2ccccc2nc1N1CCCC1 | > 100 µM (inactive) | > 100 µM (inactive) | 34.2 µM (inactive) | > 100 µM (inactive) | > 100 µM (inactive) | > 100 µM (inactive) | > 100 µM (inactive) | > 100 µM | > 100 µM (inactive) | > 100 µM (inactive) | > 100 µM (inactive) | > 100 µM (inactive) | > 100 µM (inactive) | > 100 µM (inactive) | > 100 µM (inactive) | > 100 µM (inactive) | > 100 µM (inactive) | > 100 µM (inactive) | – | –
O=c1c2cccnc2[s+]([O-])n1Cc1ccccc1 (stereo not drawn) | – | > 100 µM (inactive) | > 100 µM (inactive) | – | > 100 µM (inactive) | > 100 µM (inactive) | > 100 µM (inactive) | > 100 µM | > 100 µM (inactive) | > 100 µM (inactive) | > 100 µM (inactive) | > 100 µM (inactive) | > 100 µM (inactive) | > 100 µM (inactive) | > 100 µM (inactive) | > 100 µM (inactive) | > 100 µM (inactive) | > 100 µM (inactive) | > 100 µM (inactive) | –
COc1cc2c(C)cc(O)cc2c2cc(O)c(C)cc12 | 5.57 µM (inactive) | – | 11.7 µM (inactive) | 14.8 µM (inactive) | 11.2 µM (inactive) | 10.4 µM (inactive) | 12.5 µM (inactive) | 8.55 µM | 2.48 µM (inactive) | 14.7 µM (inactive) | – | 12.9 µM (inactive) | 12 µM (inactive) | 13.5 µM (inactive) | 10.2 µM (inactive) | 13.7 µM (inactive) | 19.1 µM (inactive) | 10.5 µM (inactive) | 9.66 µM (inactive) | 12 µM (inactive)
CCn1c(O)c(C(=O)NC(C)c2ccc([N+](=O)[O-])cc2)c(=O)n(CC)c1=S (stereo not drawn) | 2.31 µM (inactive) | – | 3.23 µM (inactive) | 1.02 µM (active) | 1.84 µM (inactive) | 2.34 µM (inactive) | 3.85 µM (inactive) | 2.58 µM | 0.951 µM (active) | 2.34 µM (inactive) | 4.27 µM (inactive) | 1.52 µM (inactive) | 2.75 µM (inactive) | 2.75 µM (inactive) | 2.43 µM (inactive) | 3.92 µM (inactive) | 2.52 µM (inactive) | 3.13 µM (inactive) | 1.92 µM (inactive) | 2.16 µM (inactive)
COC(=O)CCn1cnc2c(SC)ncnc21 | > 100 µM (inactive) | > 100 µM (inactive) | > 100 µM (inactive) | – | – | > 100 µM (inactive) | > 100 µM (inactive) | – | > 100 µM (inactive) | > 100 µM (inactive) | > 100 µM (inactive) | > 100 µM (inactive) | > 100 µM (inactive) | > 100 µM (inactive) | > 100 µM (inactive) | > 100 µM (inactive) | > 100 µM (inactive) | > 100 µM (inactive) | > 100 µM (inactive) | > 100 µM (inactive)
O=C1CSc2ccnc(=O)n21 | > 100 µM (inactive) | > 100 µM (inactive) | > 100 µM (inactive) | – | > 100 µM (inactive) | > 100 µM (inactive) | > 100 µM (inactive) | – | – | – | > 100 µM (inactive) | > 100 µM (inactive) | > 100 µM (inactive) | – | > 100 µM (inactive) | > 100 µM (inactive) | > 100 µM (inactive) | > 100 µM (inactive) | > 100 µM (inactive) | –
COC(=O)N[C@@H]1C[C@H]2CC[C@]1(O[Si](C(C)C)(C(C)C)C(C)C)C(=O)C2 | 21.4 µM (inactive) | – | 15.4 µM (inactive) | 17.4 µM (inactive) | > 10 µM (inactive) | 21.1 µM (inactive) | 11.8 µM (inactive) | 17.8 µM | > 100 µM (inactive) | 19.1 µM (inactive) | 14.6 µM (inactive) | 14.3 µM (inactive) | 17.5 µM (inactive) | 14.2 µM (inactive) | 27.7 µM (inactive) | 12.9 µM (inactive) | 10.3 µM (inactive) | 16.4 µM (inactive) | 14.1 µM (inactive) | 17.7 µM (inactive)
O=C(C(=C(I)I)c1ccccc1)c1ccccc1 | 19.2 µM (inactive) | 19.7 µM (inactive) | 28.8 µM (inactive) | 16.1 µM (inactive) | – | 49.8 µM (inactive) | 37.4 µM (inactive) | 29.9 µM | 4.7 µM (inactive) | 33.6 µM (inactive) | 30.7 µM (inactive) | 36.9 µM (inactive) | 33 µM (inactive) | – | 28.8 µM (inactive) | 22.6 µM (inactive) | 16.1 µM (inactive) | 16.8 µM (inactive) | 20.8 µM (inactive) | 20.9 µM (inactive)
CC(=O)Oc1cc(C)c(OC(C)=O)c2c1[C@H]1CC[C@]3(C)[C@@H](OC(C)=O)CC[C@H]3[C@@H]1CC2 | 19.9 µM (inactive) | 17.4 µM (inactive) | 13.5 µM (inactive) | – | 15.9 µM (inactive) | 20.6 µM (inactive) | 15.8 µM (inactive) | 17.5 µM | 23.7 µM (inactive) | 17.1 µM (inactive) | 16.4 µM (inactive) | 17.5 µM (inactive) | 11.5 µM (inactive) | > 10 µM (inactive) | 18.4 µM (inactive) | 23.3 µM (inactive) | 23.4 µM (inactive) | 17.5 µM (inactive) | 15.3 µM (inactive) | 18.2 µM (inactive)
CCCC[Si](CCCC)(CCCC)O[C@@H](/C=C/C(=O)OCC)[C@H](Cc1ccccc1)O[Si](CCCC)(CCCC)CCCC | > 100 µM (inactive) | > 100 µM (inactive) | > 100 µM (inactive) | > 100 µM (inactive) | > 100 µM (inactive) | > 100 µM (inactive) | > 100 µM (inactive) | > 100 µM | > 100 µM (inactive) | > 100 µM (inactive) | – | > 100 µM (inactive) | > 100 µM (inactive) | > 100 µM (inactive) | > 100 µM (inactive) | > 100 µM (inactive) | > 100 µM (inactive) | – | > 100 µM (inactive) | –
Cc1cccc(Nc2cn(CCOc3ccccc3)c(=O)n(CCOc3ccccc3)c2=O)c1 | > 100 µM (inactive) | – | 2.54 µM (inactive) | – | > 100 µM (inactive) | > 100 µM (inactive) | > 100 µM (inactive) | > 100 µM | > 100 µM (inactive) | – | > 100 µM (inactive) | > 100 µM (inactive) | 56.2 µM (inactive) | – | > 100 µM (inactive) | > 100 µM (inactive) | > 100 µM (inactive) | > 100 µM (inactive) | > 100 µM (inactive) | > 100 µM (inactive)
CC(C)=CCC/C(C)=C/COC(C)(C)C1=CCC(C)CC1.CC(C)=CCC/C(C)=C/COC1CC(C)CCC1=C(C)C (stereo not drawn) | > 100 µM (inactive) | > 100 µM (inactive) | > 100 µM (inactive) | – | > 100 µM (inactive) | 65.3 µM (inactive) | 63.8 µM (inactive) | > 100 µM | – | > 100 µM (inactive) | > 100 µM (inactive) | > 100 µM (inactive) | > 100 µM (inactive) | – | > 100 µM (inactive) | > 100 µM (inactive) | > 100 µM (inactive) | > 100 µM (inactive) | > 100 µM (inactive) | > 100 µM (inactive)
CC1(C)OC2C(CO)OC(n3ccc(=O)[nH]c3=O)C2O1 (stereo not drawn) | > 100 µM (inactive) | – | > 100 µM (inactive) | > 100 µM (inactive) | > 100 µM (inactive) | > 100 µM (inactive) | > 100 µM (inactive) | > 100 µM | > 100 µM (inactive) | – | > 100 µM (inactive) | > 100 µM (inactive) | 83.2 µM (inactive) | > 100 µM (inactive) | > 100 µM (inactive) | > 100 µM (inactive) | > 100 µM (inactive) | > 100 µM (inactive) | > 100 µM (inactive) | > 100 µM (inactive)
Cn1c(-c2ccccc2)cc(-c2ccc3c(c2)OCO3)c1-c1cccs1 | > 100 µM (inactive) | – | > 100 µM (inactive) | > 100 µM (inactive) | > 100 µM (inactive) | > 100 µM (inactive) | > 100 µM (inactive) | > 100 µM | > 100 µM (inactive) | > 100 µM (inactive) | > 100 µM (inactive) | > 100 µM (inactive) | > 100 µM (inactive) | > 100 µM (inactive) | > 100 µM (inactive) | > 100 µM (inactive) | > 100 µM (inactive) | > 100 µM (inactive) | > 100 µM (inactive) | > 100 µM (inactive)
Cc1ccc(S(=O)(=O)n2cnc(CC(NC(=O)C3CCC(=O)N3C(=O)OCc3ccccc3)C(=O)N3CCCC3C(=O)NN)c2)cc1 (stereo not drawn) | > 100 µM (inactive) | > 100 µM (inactive) | > 100 µM (inactive) | > 100 µM (inactive) | > 100 µM (inactive) | > 100 µM (inactive) | > 100 µM (inactive) | > 100 µM | > 100 µM (inactive) | > 100 µM (inactive) | > 100 µM (inactive) | > 100 µM (inactive) | > 100 µM (inactive) | 24.8 µM (inactive) | > 100 µM (inactive) | – | > 100 µM (inactive) | > 100 µM (inactive) | 1.02 µM (active) | –
C[C@H](OC(=O)/C=C/c1ccc(O)c(O)c1)[C@H](C)OC(=O)/C=C/c1ccc(O)c(O)c1 | 11.1 µM (inactive) | 14.7 µM (inactive) | 14.7 µM (inactive) | 10.4 µM (inactive) | 10.8 µM (inactive) | 6.28 µM (inactive) | 10.1 µM (inactive) | 4.71 µM | 4.61 µM (inactive) | 12.2 µM (inactive) | 11.5 µM (inactive) | 7.94 µM (inactive) | 15 µM (inactive) | – | 3.93 µM (inactive) | 7.43 µM (inactive) | 6.65 µM (inactive) | 6.12 µM (inactive) | 4.8 µM (inactive) | 4.24 µM (inactive)
